Measurements from US20230263822A1, “MODULATION OF FACTOR 11 EXPRESSION” (Ionis Pharmaceuticals, Inc., priority 2008, published 2023).
Strand notation (5' to 3'): a small letter for the sugar, then the base; units joined by * are phosphorothioate-linked, units joined directly phosphodiester-linked; [ ] holds rarer units or linkages, { } end groups; capitals alone tell only the bases. e = 2'-O-(2-methoxyethyl) (MOE); [5mC] = 5-methylcytosine; d = 2'-deoxy (DNA)

test system: human Factor 11 mRNA; experiment: Antisense inhibition of human Factor 11 in HepG2 cells by microwalk gapmers, lipofectin, 75 nM (Example 3); assay type: cell-based; details: HepG2, lipofectin, ~24 h, gapmers targeted to nucleobases 656 to 704 of SEQ ID NO: 1
Method: These gapmers were designed by creating gapmers shifted slightly upstream and downstream (i.e. “microwalk”) of the original gapmers from Table 3. Gapmers were also created with various motifs, e.g. 5-10-5 MOE, 3-14-3 MOE, and 2-13-5 MOE. These gapmers were tested in vitro. Cultured HepG2 cells at a density of 10,000 cells per well were transfected using lipofectin reagent with 75 nM antisense oligonucleotide. After a treatment period of approximately 24 hours, RNA was isolated from the cells and Factor 11 mRNA levels were measured by quantitative real-time PCR. Factor 11 mRNA levels were adjusted according to total RNA content, as measured by RIBOGREEN. Results are presented as percent inhibition of Factor 11, relative to untreated control cells.
The chimeric antisense oligonucleotides in Table 4 were designed as 5-10-5 MOE, 3-14-3 MOE, and 2-13-5 MOE gapmers. The first listed gapmers in Table 4 are the original gapmers (see Table 3) from which the remaining gapmers were designed via microwalk and are designated by an asterisk. The 5-10-5 gapmers are 20 nucleotides in length, wherein the central gap segment is comprised of 10 2′-deoxynucleotides and is flanked on both sides (in the 5′ and 3′ directions) by wings comprising 5 nucleotides each. The 3-14-3 gapmers are 20 nucleotides in length, wherein the central gap segment is comprised of 14 2′-deoxynucleotides and is flanked on both sides (in the 5′ and 3′ directions) by wings comprising 3 nucleotides each. The 2-13-5 gapmers are 20 nucleotides in length, wherein the central gap segment is comprised of 13 2′-deoxynucleotides. The central gap is flanked on the 5′ end with a wing comprising 2 nucleotides and on the 3′ end with a wing comprising 5 nucleotides. For each of the motifs (5-10-5, 3-14-3, and 2-13-5), each nucleotide in the 5′ wing segment and each nucleotide in the 3′ wing segment has a 2′-MOE modification. The internucleoside linkages throughout each gapmer are phosphorothioate (P=S) linkages. All cytidine residues throughout each gapmer are 5-methyl cytidines. “Target start site” indicates the 5′-most nucleotide to which the gapmer is targeted. “Target stop site” indicates the 3′-most nucleotide to which the gapmer is targeted. Each gapmer listed in Table 4 is targeted to SEQ ID NO: 1 (GENBANK Accession No. NM_000128.3).

| Substance | % inhibition [%] |
| --- | --- |
| 416946 (antisense eA*eA*dA*dT*dG*dT*d[5mC]*dT*dT*dT*dG*dT*dT*dG*d[5mC]*eA*eA*eG*e[5mC]*eG) [compound 416946] | 86 |
| 416947 (antisense eT*eA*dA*dA*dT*dG*dT*d[5mC]*dT*dT*dT*dG*dT*dT*dG*e[5mC]*eA*eA*eG*e[5mC]) [compound 416947] | 62 |
| 416948 (antisense eA*eT*dA*dA*dA*dT*dG*dT*d[5mC]*dT*dT*dT*dG*dT*dT*eG*e[5mC]*eA*eA*eG) [compound 416948] | 62 |
| 416949 (antisense e[5mC]*eA*dT*dA*dA*dA*dT*dG*dT*d[5mC]*dT*dT*dT*dG*dT*eT*eG*e[5mC]*eA*eA) [compound 416949] | 64 |
| 416950 (antisense eA*e[5mC]*dA*dT*dA*dA*dA*dT*dG*dT*d[5mC]*dT*dT*dT*dG*eT*eT*eG*e[5mC]*eA) [compound 416950] | 71 |
| 416951 (antisense e[5mC]*eA*d[5mC]*dA*dT*dA*dA*dA*dT*dG*dT*d[5mC]*dT*dT*dT*eG*eT*eT*eG*e[5mC]) [compound 416951] | 48 |
| 416952 (antisense e[5mC]*e[5mC]*dA*d[5mC]*dA*dT*dA*dA*dA*dT*dG*dT*d[5mC]*dT*dT*eT*eG*eT*eT*eG) [compound 416952] | 51 |
| 416953 (antisense eT*e[5mC]*d[5mC]*dA*d[5mC]*dA*dT*dA*dA*dA*dT*dG*dT*d[5mC]*dT*eT*eT*eG*eT*eT) [compound 416953] | 45 |
| 416954 (antisense eG*eT*d[5mC]*d[5mC]*dA*d[5mC]*dA*dT*dA*dA*dA*dT*dG*dT*d[5mC]*eT*eT*eT*eG*eT) [compound 416954] | 61 |
| 416955 (antisense eG*eG*dT*d[5mC]*d[5mC]*dA*d[5mC]*dA*dT*dA*dA*dA*dT*dG*dT*e[5mC]*eT*eT*eT*eG) [compound 416955] | 75 |
| 416956 (antisense eA*eG*dG*dT*d[5mC]*d[5mC]*dA*d[5mC]*dA*dT*dA*dA*dA*dT*dG*eT*e[5mC]*eT*eT*eT) [compound 416956] | 61 |
| 416957 (antisense eT*eA*dG*dG*dT*d[5mC]*d[5mC]*dA*d[5mC]*dA*dT*dA*dA*dA*dT*eG*eT*e[5mC]*eT*eT) [compound 416957] | 59 |
| 416958 (antisense e[5mC]*eT*dA*dG*dG*dT*d[5mC]*d[5mC]*dA*d[5mC]*dA*dT*dA*dA*dA*eT*eG*eT*e[5mC]*eT) [compound 416958] | 43 |
| 416959 (antisense eT*e[5mC]*dT*dA*dG*dG*dT*d[5mC]*d[5mC]*dA*d[5mC]*dA*dT*dA*dA*eA*eT*eG*eT*e[5mC]) [compound 416959] | 25 |
| 416960 (antisense eG*eT*d[5mC]*dT*dA*dG*dG*dT*d[5mC]*d[5mC]*dA*d[5mC]*dA*dT*dA*eA*eA*eT*eG*eT) [compound 416960] | 60 |
| 416961 (antisense eT*eG*dT*d[5mC]*dT*dA*dG*dG*dT*d[5mC]*d[5mC]*dA*d[5mC]*dA*dT*eA*eA*eA*eT*eG) [compound 416961] | 40 |
| 416962 (antisense eA*eT*dG*dT*d[5mC]*dT*dA*dG*dG*dT*d[5mC]*d[5mC]*dA*d[5mC]*dA*eT*eA*eA*eA*eT) [compound 416962] | 77 |
| 416963 (antisense e[5mC]*eA*dT*dG*dT*d[5mC]*dT*dA*dG*dG*dT*d[5mC]*d[5mC]*dA*d[5mC]*eA*eT*eA*eA*eA) [compound 416963] | 48 |
| 416964 (antisense eT*e[5mC]*dA*dT*dG*dT*d[5mC]*dT*dA*dG*dG*dT*d[5mC]*d[5mC]*dA*e[5mC]*eA*eT*eA*eA) [compound 416964] | 69 |
| 416965 (antisense eT*eT*d[5mC]*dA*dT*dG*dT*d[5mC]*dT*dA*dG*dG*dT*d[5mC]*d[5mC]*eA*e[5mC]*eA*eT*eA) [compound 416965] | 53 |
| 416966 (antisense e[5mC]*eT*dT*d[5mC]*dA*dT*dG*dT*d[5mC]*dT*dA*dG*dG*dT*d[5mC]*e[5mC]*eA*e[5mC]*eA*eT) [compound 416966] | 64 |
| 416967 (antisense e[5mC]*e[5mC]*dT*dT*d[5mC]*dA*dT*dG*dT*d[5mC]*dT*dA*dG*dG*dT*e[5mC]*e[5mC]*eA*e[5mC]*eA) [compound 416967] | 75 |
| 416968 (antisense e[5mC]*e[5mC]*d[5mC]*dT*dT*d[5mC]*dA*dT*dG*dT*d[5mC]*dT*dA*dG*dG*eT*e[5mC]*e[5mC]*eA*e[5mC]) [compound 416968] | 73 |
| 416970 (antisense eT*eG*d[5mC]*d[5mC]*d[5mC]*dT*dT*d[5mC]*dA*dT*dG*dT*d[5mC]*dT*dA*eG*eG*eT*e[5mC]*e[5mC]) [compound 416970] | 88 |

same assay, conditions: HepG2 cells, lipofectin, gapmers targeted to nucleobases 1275 to 1318 of SEQ ID NO: 1

| Substance | % inhibition [%] |
| --- | --- |
| 416920 (antisense eA*e[5mC]*eA*dG*dT*dT*dT*d[5mC]*dT*dG*dG*d[5mC]*dA*dG*dG*d[5mC]*d[5mC]*eT*e[5mC]*eG) [compound 416920] | 88 |
| 416921 (antisense e[5mC]*eA*e[5mC]*dA*dG*dT*dT*dT*d[5mC]*dT*dG*dG*d[5mC]*dA*dG*dG*d[5mC]*e[5mC]*eT*e[5mC]) [compound 416921] | 88 |
| 416927 (antisense eT*eT*eG*dG*dT*dG*d[5mC]*dA*d[5mC]*dA*dG*dT*dT*dT*d[5mC]*dT*dG*eG*e[5mC]*eA) [compound 416927] | 87 |
| 416928 (antisense eA*eT*eT*dG*dG*dT*dG*d[5mC]*dA*d[5mC]*dA*dG*dT*dT*dT*d[5mC]*dT*eG*eG*e[5mC]) [compound 416928] | 91 |
| 416929 (antisense e[5mC]*eA*eT*dT*dG*dG*dT*dG*d[5mC]*dA*d[5mC]*dA*dG*dT*dT*dT*d[5mC]*eT*eG*eG) [compound 416929] | 83 |
| 416930 (antisense eG*e[5mC]*eA*dT*dT*dG*dG*dT*dG*d[5mC]*dA*d[5mC]*dA*dG*dT*dT*dT*e[5mC]*eT*eG) [compound 416930] | 87 |
| 416932 (antisense e[5mC]*eG*eG*d[5mC]*dA*dT*dT*dG*dG*dT*dG*d[5mC]*dA*d[5mC]*dA*dG*dT*eT*eT*e[5mC]) [compound 416932] | 92 |
| 416933 (antisense eA*e[5mC]*eG*dG*d[5mC]*dA*dT*dT*dG*dG*dT*dG*d[5mC]*dA*d[5mC]*dA*dG*eT*eT*eT) [compound 416933] | 92 |
| 416934 (antisense eG*eA*e[5mC]*dG*dG*d[5mC]*dA*dT*dT*dG*dG*dT*dG*d[5mC]*dA*d[5mC]*dA*eG*eT*eT) [compound 416934] | 90 |
| 416935 (antisense eG*eG*eA*d[5mC]*dG*dG*d[5mC]*dA*dT*dT*dG*dG*dT*dG*d[5mC]*dA*d[5mC]*eA*eG*eT) [compound 416935] | 92 |
| 416936 (antisense e[5mC]*eG*eG*dA*d[5mC]*dG*dG*d[5mC]*dA*dT*dT*dG*dG*dT*dG*d[5mC]*dA*e[5mC]*eA*eG) [compound 416936] | 89 |
| 416937 (antisense eG*e[5mC]*eG*dG*dA*d[5mC]*dG*dG*d[5mC]*dA*dT*dT*dG*dG*dT*dG*d[5mC]*eA*e[5mC]*eA) [compound 416937] | 93 |
| 416938 (antisense eA*eG*e[5mC]*dG*dG*dA*d[5mC]*dG*dG*d[5mC]*dA*dT*dT*dG*dG*dT*dG*e[5mC]*eA*e[5mC]) [compound 416938] | 90 |
| 416939 (antisense e[5mC]*eA*eG*d[5mC]*dG*dG*dA*d[5mC]*dG*dG*d[5mC]*dA*dT*dT*dG*dG*dT*eG*e[5mC]*eA) [compound 416939] | 88 |
| 416940 (antisense eG*e[5mC]*eA*dG*d[5mC]*dG*dG*dA*d[5mC]*dG*dG*d[5mC]*dA*dT*dT*dG*dG*eT*eG*e[5mC]) [compound 416940] | 92 |
| 416942 (antisense eT*eG*eG*d[5mC]*dA*dG*d[5mC]*dG*dG*dA*d[5mC]*dG*dG*d[5mC]*dA*dT*dT*eG*eG*eT) [compound 416942] | 85 |
| 416943 (antisense e[5mC]*eT*eG*dG*d[5mC]*dA*dG*d[5mC]*dG*dG*dA*d[5mC]*dG*dG*d[5mC]*dA*dT*eT*eG*eG) [compound 416943] | 92 |
| 416944 (antisense eA*e[5mC]*eT*dG*dG*d[5mC]*dA*dG*d[5mC]*dG*dG*dA*d[5mC]*dG*dG*d[5mC]*dA*eT*eT*eG) [compound 416944] | 83 |
